Assay results taken from patent US9018173B2, “Materials and methods for suppressing inflammatory and neuropathic pain” (Indiana University Research and Technology Corp., priority 2010, dated 2015).
Residues, ends and D or L forms follow the SMILES beside them.

Assays:
[1] = system: depression/despair-associated behavior; assay: Tail suspension test (TST); assay type: in vivo, C57BL6 mice; settings: for Tail Suspension Test: Active: C57BL6 mice, 1 h after injection, 5 min test
Description: The light-dark box test and the elevated plus maze were used as measures of anxiety-associated behaviors. The tail suspension test was performed to evaluate despair- and depression-associated behavior.
Depression/Despair-behavior testing. Since rodents such as mice and rats display immobile postures when placed in inescapable stressful situations, immobility behavior in the tail suspension test (TST) or forced swim test (FST) is used as a measure of “depression” or “despair”-associated behavior. Furthermore, administering antidepressant treatments prior to testing reduces immobility behavior. Therefore TST and FST are often used to screen novel drugs for depressant or anti-depressant properties.
Tail suspension test as a measure of depression-associated behavior. Immediately following the EPM test, the TST was conducted according to standard procedure between 8:00 AM and 2:00 PM. Cryan, J. F., Mombereau, C., & Vassout, A. The tail suspension test as a model for assessing antidepressant activity: review of pharmacological and genetic studies in mice. Neurosci. Biobehay. Rev. 29, 571-625 (2005). Briefly, each mouse was suspended by the tail at a height of 40 cm by taping the rail to a horizontal bar so that the tail is vertical to the bar. Behavior was video recorded for 5 min and later analyzed by an experimenter, whom was blind to the treatments. […] If a mouse climbed its tail the mouse was gently pulled back down and the trial continued. Mice that climbed their tails for more than 20% of the trial (i.e. >60 seconds) were eliminated from the final analysis. Duration and frequency of immobility was the main parameters measured. Mice injected with the scrambled control peptide were immobile approximately 26% of the TST duration which is equivalent to baseline immobility durations (approximately 27%) observed in C57B16 mice in another recent study.

[2] = target: T1, CaV2.2 (Rattus norvegicus, UniProt Q02294); assay: Peptide spot array far-Western: CaV2.2 binding to 15-mer CRMP-2 peptides; settings: 15-mer peptide #96 overlaid with spinal cord lysates / rat brain synaptosomes
T1 construct: incubated with a purified synaptosome fraction enriched in Ca^2+ channels; from tissue; host or cells: P1 neonatal rat brain synaptosomes, enriched on WGA-Sepharose and heparin-agarose
Description: Purification/Enrichment of Ca^2+ channels from synaptosomes. In order to prepare a rich source of CaV2.2 for the far-Western analyses (see below), synaptosomes from P1 neonatal rat brains were solubilized with digitonin and enriched by chromatography on WGA-Sepharose as described previously. Briefly, 30 PN1 neonatal rat brains were homogenized in 180 ml of 320 mM sucrose with a glass-Teflon homogenizer. After a short centrifugation (5000 rpm, 2 min), the supernatant (SN) was centrifuged (42,000 rpm, 60 min). The membranes were solubilized with 1.2% digitonin, 80 mM sodium phosphate buffer, pH 7.4 for 20 min. Unsolubilized material was removed by the centrifugation as before, and the supernatant (S3) was poured over a 40 ml WGA-Sepharose column (50 ml/h). After incubation for 1 hr at 4° C., the column was washed with 10 column volumes of 0.1% digitonin, 75 mM NaCl, 50 mM sodium phosphate, 10 mM Tris-HCl (pH 7.4) at a flow rate of 50 ml/hr. The glycoproteins bound to the WGA-Sepharose column were eluted with 100 mM N-acetyl-D-glucosamine (Sigma, St. Louis, Mo.) in the same buffer at a flow rate of 50 ml/hr. Three milliliter fractions were collected and the protein concentration of each fraction was determined by BCA protein assay kit (Thermo Fisher Scientific, Shelbyville, Ind.). […]

T1 sequence (Q02294 whole entry): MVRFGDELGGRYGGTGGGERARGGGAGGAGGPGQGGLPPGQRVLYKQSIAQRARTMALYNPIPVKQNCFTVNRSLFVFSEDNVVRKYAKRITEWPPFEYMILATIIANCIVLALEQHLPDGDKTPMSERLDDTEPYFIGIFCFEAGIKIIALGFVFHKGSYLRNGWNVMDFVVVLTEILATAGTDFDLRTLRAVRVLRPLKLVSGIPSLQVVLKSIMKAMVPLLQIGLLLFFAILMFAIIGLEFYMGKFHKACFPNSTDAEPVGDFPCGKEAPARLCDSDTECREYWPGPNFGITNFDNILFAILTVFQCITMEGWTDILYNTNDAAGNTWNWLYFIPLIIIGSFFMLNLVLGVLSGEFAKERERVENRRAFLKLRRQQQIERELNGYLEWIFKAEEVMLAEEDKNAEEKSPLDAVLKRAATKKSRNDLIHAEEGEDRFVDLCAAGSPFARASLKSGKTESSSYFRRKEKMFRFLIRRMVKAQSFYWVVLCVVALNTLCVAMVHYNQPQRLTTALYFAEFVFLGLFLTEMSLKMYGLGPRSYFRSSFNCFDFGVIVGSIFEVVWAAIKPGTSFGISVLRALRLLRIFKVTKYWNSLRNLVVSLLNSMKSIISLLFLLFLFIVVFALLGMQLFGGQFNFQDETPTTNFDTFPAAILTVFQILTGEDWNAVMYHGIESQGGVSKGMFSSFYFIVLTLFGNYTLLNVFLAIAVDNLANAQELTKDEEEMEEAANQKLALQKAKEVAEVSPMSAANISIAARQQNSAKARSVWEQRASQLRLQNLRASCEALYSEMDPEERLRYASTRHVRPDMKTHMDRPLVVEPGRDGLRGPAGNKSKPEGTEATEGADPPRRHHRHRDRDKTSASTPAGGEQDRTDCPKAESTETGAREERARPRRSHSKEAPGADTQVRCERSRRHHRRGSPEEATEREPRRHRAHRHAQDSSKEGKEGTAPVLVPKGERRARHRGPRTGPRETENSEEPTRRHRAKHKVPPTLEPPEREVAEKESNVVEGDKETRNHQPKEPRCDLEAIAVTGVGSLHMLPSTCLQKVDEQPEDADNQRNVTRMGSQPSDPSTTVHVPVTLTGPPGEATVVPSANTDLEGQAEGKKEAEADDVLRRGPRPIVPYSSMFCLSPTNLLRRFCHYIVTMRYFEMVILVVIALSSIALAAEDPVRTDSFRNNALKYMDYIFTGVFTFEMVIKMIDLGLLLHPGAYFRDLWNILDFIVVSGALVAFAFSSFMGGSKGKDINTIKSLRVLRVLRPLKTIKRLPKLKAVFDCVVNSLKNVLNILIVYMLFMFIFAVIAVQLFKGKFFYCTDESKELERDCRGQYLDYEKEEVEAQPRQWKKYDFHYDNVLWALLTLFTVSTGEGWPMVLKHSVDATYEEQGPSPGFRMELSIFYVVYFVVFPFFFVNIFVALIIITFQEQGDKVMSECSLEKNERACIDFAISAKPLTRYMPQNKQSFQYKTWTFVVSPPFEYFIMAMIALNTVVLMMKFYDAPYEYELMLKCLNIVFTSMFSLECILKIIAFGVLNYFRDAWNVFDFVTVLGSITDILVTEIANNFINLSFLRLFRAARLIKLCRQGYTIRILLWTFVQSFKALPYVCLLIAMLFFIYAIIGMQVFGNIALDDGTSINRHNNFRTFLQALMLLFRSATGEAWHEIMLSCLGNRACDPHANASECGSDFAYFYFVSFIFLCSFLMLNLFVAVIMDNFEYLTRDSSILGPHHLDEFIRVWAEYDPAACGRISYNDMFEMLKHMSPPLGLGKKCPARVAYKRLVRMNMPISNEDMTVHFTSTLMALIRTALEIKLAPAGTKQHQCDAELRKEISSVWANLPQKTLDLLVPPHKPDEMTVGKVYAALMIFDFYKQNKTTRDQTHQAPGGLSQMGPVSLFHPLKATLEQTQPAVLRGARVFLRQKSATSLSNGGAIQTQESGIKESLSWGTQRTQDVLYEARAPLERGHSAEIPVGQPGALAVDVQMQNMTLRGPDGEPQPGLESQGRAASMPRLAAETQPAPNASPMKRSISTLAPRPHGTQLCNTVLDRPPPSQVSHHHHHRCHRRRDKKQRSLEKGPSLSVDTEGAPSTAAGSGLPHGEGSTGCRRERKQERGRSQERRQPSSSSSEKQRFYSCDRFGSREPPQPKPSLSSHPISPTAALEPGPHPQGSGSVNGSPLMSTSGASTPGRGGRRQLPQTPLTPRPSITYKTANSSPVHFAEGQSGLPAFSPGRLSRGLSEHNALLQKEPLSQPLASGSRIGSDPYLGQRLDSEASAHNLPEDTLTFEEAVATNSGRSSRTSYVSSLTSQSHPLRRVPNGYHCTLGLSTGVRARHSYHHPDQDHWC

Molecule	Tail Suspension Test: Active ([1]; 0.1 mg/kg i.p.) [s]	Tail Suspension Test: Active ([1]; 1 mg/kg i.p.) [s]	Tail Suspension Test: Active ([1]; 10 mg/kg i.p.) [s]	TST time spent immobile and frequency of immobile episodes ([1]; any dose, compared to TAT-Scramble)	binding to CaV2.2 [2]
CC(C)C[C@H](NC(=O)CNC(=O)[C@H](CCCNC(=N)N)NC(=O)[C@@H]1CCCN1C(=O)[C@@H](NC(=O)CNC(=O)[C@H](CCCNC(=N)N)NC(=O)[C@H](CC(C)C)NC(=O)[C@H](CCC(=O)O)NC(=O)[C@H](C)NC(=O)[C@H](CC(C)C)NC(=O)[C@H](CCCNC(=N)N)NC(=O)[C@H](CO)NC(=O)[C@H](CCCNC(=N)N)NC(=O)[C@H](C)NC(=O)[C@H](CCCNC(=N)N)NC(=O)[C@H](CCCNC(=N)N)NC(=O)[C@H](CCCNC(=N)N)NC(=O)[C@H](CCC(N)=O)NC(=O)[C@H](CCCNC(=N)N)NC(=O)[C@H](CCCNC(=N)N)NC(=O)[C@H](CCCCN)NC(=O)[C@H](CCCCN)NC(=O)[C@H](CCCNC(=N)N)NC(=O)CNC(=O)[C@@H](N)Cc1ccc(O)cc1)C(C)C)C(=O)O [TAT-CBD3] (H-YGRKKRRQRRRARSRLAELRGVPRGL-OH; N-terminus and C-terminus assumed)	238.1 ± 13.6	235.2 ± 13.0	239.7 ± 10.9	neither time spent immobile, nor frequencies of immobile episodes were altered	–
ARSRLAELRGVPRGL (CBD3)	–	–	–	–	bound to the CaV2.2
